Entries after “also recorded” stand apart in the source; their conditions may differ. Where no end group is shown, it is not given here.

Data on four compounds can be found in patent publication US20130197069A1, “METHODS FOR TREATING STRESS INDUCED EMOTIONAL DISORDERS” (MASSACHUSETTS INSTITUTE OF TECHNOLOGY, priority 2007, published 2013).

Experiment [1] relates to Mice (Balb/c). The experiment is described as follows: Extinction of contextual freezing behavior after contextual fear conditioning. The experiment is classed as in vivo. The procedure:
Animals: Mice (Balb/c, 12 weeks old) were housed under standard conditions with access to food and water ad libitum. All mice were purchased from Taconic (Germantown, N.Y.). Behavior testing was performed in a way that the mice were either housed in a separated compartment but within the testing room or different rooms were used for housing and testing. In the latter case the mice were brought to the testing room before the procedure. Although it appears that the dynamics of extinction behavior are somewhat variable depending on the employed behavior facility, the trends remain the same in different experiments. All experiments were approved by the corresponding Animal Use and Care Committee.
(§1) Extinction of contextual freezing behavior: Extinction and reminder shock procedures were performed as described before^6. In brief, mice were exposed to contextual fear conditioning (3 min context followed by at mild electric foot shock, 2 s, 0.7 mA). In some experiments a tone (30 s, 10 kHz, 75 dB SPL) was presented for 30 s before the shock. Extinction was performed on consecutive days. An extinction trial consisted of a 3 min re-exposure to the conditioning context.
Surgery/injection: Microcannula were purchased custom made from PlasticOne. The gauge of the guide and injection cannulae was 26 and 28, respectively. To insert cannulae into the dorsal hippocampus the coordinates AP −1.5 mm, lateral 1 mm, depth 2 mm were used as described before^18. To insert cannulae icy the coordinates AP +0.5 mm, lateral 1 mm, depth 2 mm were used. Butyrolactone I and roscovitine were dissolved and injected as described before^18. Rac-1 inhibitor was dissolved in aCSF and delivered bilaterally (0.5 μl/side) over a 1 min period. The correct localization of the cannulae was verified at the end of an experiment by methyleneblue injection. The cis-tronic Herpes Virus expressing GFP and dnPAK-1 or GFP alone was injected into the hippocampus bilaterally (0.5 μl/side) over a 2 min period. DnPAK-1 consisted of the DNA encoding amino acid 83-149 of PAK-1.
To test for a role of Cdk5 activity during extinction of learned fear, mice were implanted with microcannulae into the dorsal hippocampus (i.h.) and trained in the contextual fear conditioning paradigm. Fear conditioning consisted of a 3 min context exposure followed by a single electric foot shock ([…], constant current, 2 s). Subsequently, all mice were subjected to a daily extinction trial (E) on 6 consecutive days (E1-E6). Each extinction trial consisted of a 3 min re-exposure to the conditioned context without presenting the foot-shock again.

A further experiment deals with p35/Cdk5. Briefly: Immunoblot of p35/Cdk5 in hippocampal membrane and cytosolic fractions. The experiment is classed as in vivo, mice. The conditions noted are these: icv 10 μg/μl after E1-E3, fractions 0.5 h after E3. As to the method:
(§2) Immunoblot analysis: Immunoblot analysis was performed as described before^19. The antibody detecting pPAK-1Thr212 was used in a 1:250 dilution.
(§3) Anti-PAK-1 was from Santa Cruz (Santa Cruz, Calif.). All other antibodies were used in a 1:1000 dilution. pPAK-1Thr423 (Cell Signaling, Danvers, Mass.) synaptophysin (Sigma, St. Louis, Mo.), GAPDH and Rac-1 were from Upstate (Lake Placid, N.Y.), Cdk5 (J3) and p35 (C-19) were from Santa Cruz.
To this end, microcannuale were implanted into the lateral ventricles of mice that were subsequently trained by contextual fear conditioning and exposed to our extinction paradigm. Immediately after E1-E3 mice were injected with a Rac-1 inhibitor^35 (NSC23760; 10 μg/μl) or vehicle. Hippocampal membrane and cytosolic fractions were prepared 0.5 h after E3 and analyzed by immunoblot.
A general note: In western blotting, separated proteins are transferred to a membrane and probed.

Another experiment deals with PAK-1. Briefly: Immunoblot of PAK-1, PAK-1T212 and PAK-1T423 in hippocampal membrane and cytosolic fractions. The format is in vivo, mice. As to the method:
as §2, §3
First, we measured PAK-1 phosphorylation at threonine 212 during extinction because this site is phosphorylated by p35/Cdk5^33. […] We also analyzed the activity of PAK-1 using a phospho-T423 antibody against PAK-1^37 in hippocampal lysates prepared from naïve mice and from mice 0.5 h after E1 or E3 by immunoblotting. We detected a significant increase in membrane associated PAK-1Thr423 levels after E3, when compared to E1 (FIG. 4b).
(§4) Next, we set out experiments to determine if the regulation of PAK-1 activity during extinction depended on the activities of Rac-1 and Cdk5/p35. To this end, lysates prepared from mice that were injected with a Rac-1 inhibitor or vehicle (as described under FIG. 3c) were analyzed by immunoblot. […] Consistently, PAK-1 levels increased in the cytosol of mice treated with Rac-1 inhibitor.
To investigate the impact of Cdk5/p35 activity on PAK-1 function during extinction, mice were implanted with microcannulae into the lateral ventricles and injected with 50 ng butyrolactone I immediately after E1. Because a single injection of butyrolactone I after E1 was sufficient to facilitate extinction (see FIG. 1d), hippocampal lysates were prepared 0.5 h after E1 and analyzed by immunoblotting using PAK-1 antibodies (FIG. 5a). […] In contrast, PAK-1T423 levels increased in lysates obtained from butyrolactone I injected mice (FIG. 5 b, c).

The test system of experiment [2] is p35 co-immunoprecipitated with PAK-1. The experiment is described as follows: Co-immunoprecipitation of PAK-1 and p35 from hippocampal lysates. The format is in vivo, mice. The conditions noted are these: Rac-1 inhibitor icv; 0.5 h after E3. As to the method: Membrane and cytosolic fractions were prepared form the hippocampus of mice 0.5 h after exposure to E1, E3 or from naïve animals and analyzed for the levels of the Cdk5 substrate PAK-1 by immunoblotting. […] In the cytosolic fraction pPAK-1T423 levels decreased after E1 when compared to naïve mice but increased back to baseline levels after E3. c. Hippocampal cytosolic and membrane fractions were prepared on E3 0.5 h after mice were injected (icv) with either vehicle or Rac-1 inhibitor. […] The same lysates as described under (c) were used to immunoprecipitate PAK-1. An HA antibody served a control for unspecific binding of proteins to the proteinA agarose beads. The precipitates were immunoblotted with antibodies against PAK-1 and p35. […] Error bars indicate S.E.M.
as §4

A further experiment has as its target T1, hippocampal Cdk5 (Mus musculus, UniProt P49615).
T1 construct: from tissue; host or cells: hippocampus of Balb/c mice
Briefly: Hippocampal Cdk5 activity measured by histone H1 phosphorylation. The experiment is classed as in vivo, mice. As to the method:
(§5) In agreement with previous data the recovery of the fear response is rarely complete and may indicate that unlearning and new learning may coexist during extinction^29 30. […] In contrast, when butyrolactone I (50 ng) was administered 3 h after E1, freezing behavior was indistinguishable between butyrolactone I- and vehicle-injected mice (FIG. 1f). We estimated that the employed concentrations of butryrolactone I and roscovitine permit a specific inhibition of Cdk5. However high levels of those drugs may also affect Erk-1/2 kinases^31. […] Moreover, freezing behavior is not generally affected.

Experiment [3] concerns MAP kinase signaling pathway. Briefly: MAP kinase signaling pathway in hippocampus after injection. The experiment is classed as in vivo, mice. The conditions noted are these: 50 ng into hippocampus. The procedure:
as §5

Experiment [4] deals with Mice (Balb/c). Briefly: Extinction of amygdala-dependent cued fear. The experiment is classed as in vivo. The conditions noted are these: intrahippocampal injection. The procedure: as §1, §5
Experiment [5] concerns Rac1 interaction with Rac1-specific GEFs TrioN, GEF-H1 and Tiam1. The conditions noted are these: Gao et al (2001) J. Biol. Chem. 276 47530; cited from earlier work.
[6] abbreviates: Rac-1 inhibitor icv, 0.5 h after E3, cytosolic fraction.
The mark [7] stands for this setting: Rac-1 inhibitor icv, 0.5 h after E3, membrane fraction.
[8] abbreviates: 50 ng immediately after E1, fractions 0.5 h later.
The mark [9] stands for this setting: 50 ng immediately after E1, fractions 0.5 h later, listed as Butyrolactone I.

T1 sequence (P49615 whole entry): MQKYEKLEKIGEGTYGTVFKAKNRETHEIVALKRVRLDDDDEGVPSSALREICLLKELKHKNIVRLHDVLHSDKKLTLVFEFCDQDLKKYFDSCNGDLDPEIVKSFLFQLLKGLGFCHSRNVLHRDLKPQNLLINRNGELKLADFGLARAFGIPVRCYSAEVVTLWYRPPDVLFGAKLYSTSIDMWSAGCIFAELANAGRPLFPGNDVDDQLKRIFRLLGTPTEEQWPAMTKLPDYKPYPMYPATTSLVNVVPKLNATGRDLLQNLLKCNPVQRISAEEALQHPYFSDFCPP
T1 sequence (P61809 2-307 partner limits assumed): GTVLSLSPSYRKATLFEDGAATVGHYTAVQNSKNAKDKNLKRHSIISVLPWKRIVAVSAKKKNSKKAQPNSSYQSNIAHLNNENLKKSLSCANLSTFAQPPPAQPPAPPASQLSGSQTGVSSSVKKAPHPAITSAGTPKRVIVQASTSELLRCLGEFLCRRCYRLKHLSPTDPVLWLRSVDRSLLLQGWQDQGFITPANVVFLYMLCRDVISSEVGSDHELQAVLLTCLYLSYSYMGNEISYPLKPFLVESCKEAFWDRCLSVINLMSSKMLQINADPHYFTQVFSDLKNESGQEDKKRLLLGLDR

As to `CCN(CC)CCCC(C)Nc1nc(C)cc(Nc2ccc3nc(C)cc(N)c3c2)n1` (stereo not drawn) [NSC23760], the “freezing behavior vs. vehicle group” value in the experiment with Mice (Balb/c) [1] (icv 10 μg/μl immediately after E1-E3) is recorded as “significant reduction of freezing behavior; also recorded: reduced freezing”. In the experiment with p35/Cdk5, the “membrane associated p35 and Cdk5 levels / distribution vs. vehicle” value is “dramatic redistribution of membrane associated p35 and Cdk5 to the cytosol”. The “membrane associated p35 and Cdk5 levels / distribution vs. vehicle” value in the experiment on p35/Cdk5 (listed as Rac-1 inhibitor) is on record as “significant reduction of membrane-associated Cdk5/p35”. Also, in the experiment on PAK-1 (setting [6]), the “PAK-1 levels in the cytosol vs. vehicle” value is reported as “increased” and the “cytosolic PAK-1T212 levels vs. vehicle” value was “decreased”. For the same compound, in the experiment on PAK-1 (setting [7]), the “membrane associated PAK-1T212 levels vs. vehicle” value is “dramatic reduction; also recorded: significant reduction” and the “membrane associated PAK-1 levels vs. vehicle” value is “dramatic reduction; also recorded: significant reduction”. The “amount of p35 co-immunoprecipitated with PAK-1 vs. vehicle” value in experiment [2] was “reduced amount of p35 co-immunoprecipitated with PAK-1; also recorded: Much less p35 co-immunoprecipitated with PAK-1”.

As for `COC(=O)[C@@]1(Cc2ccc(O)c(CC=C(C)C)c2)OC(=O)C(O)=C1c1ccc(O)cc1` [butyrolactone I], the “freezing behavior / extinction vs. vehicle group” value in the experiment on Mice (Balb/c) [1] (12.5 ng i.h. after E1-E3, listed as butyrolactone 1) is “no significant effect on the reduction of freezing behavior”; in the experiment on Mice (Balb/c) [1] (25 ng i.h. after E1-E3), “Extinction was similar in vehicle and butyrolactone I injected mice”; with Mice (Balb/c) [1] (25 ng i.h. after E1-E3, listed as butyrolactone 1), “no significant effect on the reduction of freezing behavior”; with Mice (Balb/c) [1] (50 ng i.h. 3 h after E1) it was “indistinguishable”; in the experiment with Mice (Balb/c) [1] (50 ng i.h. 3 h after E1, listed as butyrolacone I), “no significant effect on extinction”. The “freezing behavior vs. vehicle group” value was “reduced freezing behavior on E2 and E3” with Mice (Balb/c) [1] (50 ng i.h. immediately after E1-E3); “significantly reduced freezing behavior on E2 and E3” in the experiment on Mice (Balb/c) [1] (50 ng i.h. immediately after E1-E3, listed as butyrolactone 1); “significant reduction of freezing behavior on E2” in the experiment with Mice (Balb/c) [1] (50 ng injected 1 h after E1); “significantly diminished freezing behavior on the subsequent extinction trials” in the experiment on Mice (Balb/c) [1] (single injection i.h. 50 ng immediately after E1); “significant reduction of freezing behavior on E2” in the experiment on Mice (Balb/c) [1] (single injection i.h. 50 ng immediately after E1, listed as butyrolactone). Besides, the “reinstatement of freezing behavior by reminder shock procedure” value in the experiment with Mice (Balb/c) [1] (after 50 ng i.h. following E1-E3) is “able to reinstate freezing behavior”. The “freezing behavior during the extinction trial” value in the experiment on Mice (Balb/c) [1] (intrahippocampal injection 15 min before extinction trial 1 or 2) is listed as “did not affect freezing behavior during the extinction trial”. Moreover, the “hippocampal Cdk5 activity (histone H1 phosphorylation)” value on hippocampal Cdk5 (12.5 ng i.h.) and on hippocampal Cdk5 (25 ng i.h.) was “did not reduce hippocampal Cdk5 activity” throughout. In addition, the “effect on MAP kinase signaling pathway” value in experiment [3] is listed as “did not affect the MAP kinase signaling pathway”. The “extinction of amygdala-dependent cued fear” value in the experiment on Mice (Balb/c) [4] is listed as “did not affect extinction of amygdala-dependent cued fear”. Moreover, the “PAK-1T212 levels in the cytosolic fraction vs. vehicle” value is reported as “significantly reduced” in the experiment on PAK-1 (setting [8]) and “decreased” in the experiment with PAK-1 (setting [9]). Further, the figures for the “PAK-1T212 levels in the membrane fraction vs. vehicle” value in the experiment with PAK-1 (setting [8]) and with PAK-1 (setting [9]) were “reduced” and “decreased”, respectively. In addition, the “distribution of total PAK-1 between membrane and cytosol vs. vehicle” value with PAK-1 (setting [8]) is given as “re-distribution of total PAK-1 from the membrane to the cytosol”; in the experiment on PAK-1 (50 ng immediately after E1, fractions 0.5 h later, listed as butyrolactone), “significant re-distribution of PAK-1 from the membrane to the cytosol”. Also, in the experiment on PAK-1 (50 ng immediately after E1, fractions 0.5 h later, membrane fraction (FIG. 5c)), the “PAK-1T423 levels vs. vehicle” value is reported as “significantly increased”.

For `CC[C@H](CO)Nc1nc(NCc2ccccc2)c2ncn(C(C)C)c2n1` [roscovitine], the “freezing behavior vs. vehicle group” value in the experiment with Mice (Balb/c) [1] (roscovitine i.h. 50 ng into dorsal hippocampus immediately after E1-E3) is “reduced freezing behavior”.

For MVDGKPVNLGLWDTAG [Rac1 Inhibitor W56], the “inhibition of Rac1 interaction with Rac1-specific GEFs” value in experiment [5] is listed as “selectively inhibits”.
